Test results as given in paper PMC3426542, “A Novel Virulence Strategy for Pseudomonas aeruginosa Mediated by an Autotransporter with Arginine-Specific Aminopeptidase Activity” (PLoS Pathogens, 2012).

Target: T1, SGAP (Streptomyces griseus, UniProt P80561)
T1 construct: gene SGR_5809; commercial preparation (Sigma)
Test: 4-nitroanilide release at […] nm, commercial enzyme
Type: biochemical
Settings: 1 mM substrate, MMP, 37 °C

T1 sequence (P80561 46-329): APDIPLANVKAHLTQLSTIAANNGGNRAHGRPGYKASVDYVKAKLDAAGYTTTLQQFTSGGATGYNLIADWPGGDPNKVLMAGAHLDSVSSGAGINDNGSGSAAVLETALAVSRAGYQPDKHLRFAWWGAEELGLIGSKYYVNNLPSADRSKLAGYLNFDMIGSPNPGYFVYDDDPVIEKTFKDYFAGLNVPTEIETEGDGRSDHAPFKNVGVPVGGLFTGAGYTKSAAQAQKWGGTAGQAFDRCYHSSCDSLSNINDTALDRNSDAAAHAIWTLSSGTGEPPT

SMILES | 4-nitroanilide release at 405 nm, commercial enzyme
CC(C)C[C@H](N)C(=O)Nc1ccc([N+](=O)[O-])cc1 [leucine-p-nitroanilide] | SGAP clearly released maximal levels of 4-nitroanilide from leucine-p-nitroanilide and methionine-p-nitroanilide
CSCC[C@H](N)C(=O)Nc1ccc([N+](=O)[O-])cc1 [methionine-p-nitroanilide] | SGAP clearly released maximal levels of 4-nitroanilide from leucine-p-nitroanilide and methionine-p-nitroanilide
